How the values were obtained:
[1] = test system: KTC-ICR mice; experiment: phenyl-1,4-benzoquinone (PBQ) induced writhing test (analgesic effect); type: in vivo; settings: Mus musculus, ip, read-out: ED50 PBQ
Method: (§1) Physiological activities of the compounds obtained in Examples 1 to 11 were measured by employing acetic acid or phenyl-1,4-benzoquinone(PBQ) induced writhing test.
(§2) The KTC-ICR mice provided by Experimental Animal Laboratory of Korea Research Institute of Chemical Technology were used as test animals. […] They were tested in a group consisting of 8 mice for each dosage of a test compound after having been adjusted to the testing environment for a week. Food and water were given freely; and illumination was maintained on a 12-hour cycle.
(§3) Test solutions were prepared by dissolving one of the final products obtained in Examples 1 to 11 in distilled water containing 1% of Tween and 5% ethanol in a pre-determined concentration. The test solutions were used after serial dilution depending on each dosage.
(§4) The test solutions were intraperitoneally administered in a dose of 0.1 ml per 10 g of a body weight. 0.1 ml of 1% acetic acid solution or 0.1 ml of 0.02% PBQ solution was administered after 60 minutes in case of oral administration or after 30 minutes in case of subcutaneous injection.
(§5) Then, the number of writhings generated during a period of 10 minutes after 3 minutes from the administration of acetic acid was measured. In case of the administration of PBQ, the number of writhings generated during a period of 5 minutes after 5 minutes from the administration was measured.
(§6) For a comparison purpose, initially, distilled water containing 1% of Tween and 5% ethanol alone was administered to the control group. Then, the control groups were subjected the same procedure as the test groups.
(§7) The number of writhings suffered by the test group was compared with that of the control group; and the analgesic effect was measured in terms of the percentage of inhibition of writhing(I. W.). [formula] wherein: A is the number of writhings suffered by the control group; and
(§8) B is the number of writhings suffered by the test group.
(§9) I.W. values for each dosage were calculated by employing regression analysis. The amount of a test compound which is required in reducing the frequency of writhings to the 50% level of that generated by the control group, i.e., B=0.5A or I.W.=50%, is designated as ED50 (mg/kg of a body weight). Therefore, a lower value of ED50 represents a higher analgesic effect of the tested compound.

[2] = test system: KTC-ICR mice; experiment: acetic acid induced writhing test (analgesic effect); type: in vivo; settings: for ED50: Mus musculus, ip, read-out: ED50 acetic acid
Method: as §1, §2, §3, §4, §5, §6, §7, §8, §9

[3] = test system: test animals; experiment: toxicity test: behavioral changes in the test animals observed by the naked eye; type: in vivo, KTC-ICR mice; design: key to Convulsion / Salivation / Urination: score; normal value 0, higher number = greater side effects; settings: score; for Convulsion / Salivation / Urination: normal value 0; for Dyspnoea / Ptosis / Sedation / Vasodilation: normal value 4
Method: In order to monitor a harmful side-effect or toxicity of the present compounds, various behavioral changes in the test animals were observed. After the test and the control solutions were administered to the animals, symptoms such as sedation, ptosis, dyspnoea, vasodilation, convulsion, salivation and urination were observed by the naked eye and the level of such changes was represented by a numbering system: that is, the normal value of the last three behaviors(i.e., urination, convulsion and salivation) is 0; and that of the others(i.e., sedation, ptosis, dyspnoea and vasodilation) is 4. The higher the number is, the greater the side effects are.

[4] = acetic acid induced writhing, 50% reduction of writhings vs control group, mice 20 to 25 g
[5] = PBQ induced writhing, 50% reduction of writhings vs control group, mice 14 to 18 g

Work on `CC(=O)Oc1ccccc1C(=O)O` [Aspirin] yielded an ED50 [1] of 71.4 mg/kg.
Compound `COc1cc(CNC(=O)CCCC/C=C/C(C)C)ccc1O` [Capsaicin, Nvanillyl-trans-8-methyl-6-nonenamide, reference compound] has an ED50 [2] of 1.34 mg/kg.
`COc1cc(CC(=O)NCCCc2ccc(C)c(C)c2)ccc1OCCN` [Control, reference compound] gave a Convulsion ([3]; Amount 0.2 mgg) of 1, a Salivation ([3]; Amount 0.2 mgg) of 0 and a Urination ([3]; Amount 0.2 mgg) of 0. It also gave a Dyspnoea ([3]; Amount 0.2 mgg) of 4, a Ptosis ([3]; Amount 0.2 mgg) of 4 and a Sedation ([3]; Amount 0.2 mgg) of 4. For the same compound, the Vasodilation ([3]; Amount 0.2 mgg) was 4, the Convulsion ([3]; Amount 0.25 mgg) was 1 and the Salivation ([3]; Amount 0.25 mgg) was 0. For the same compound, the Urination ([3]; Amount 0.25 mgg) was 0, the Dyspnoea ([3]; Amount 0.25 mgg) was 5 and the Ptosis ([3]; Amount 0.25 mgg) was 6. For the same compound, the Sedation ([3]; Amount 0.25 mgg) was 6, the Vasodilation ([3]; Amount 0.25 mgg) was 5 and the Convulsion ([3]; Amount 0.5 mgg) was 1. The Salivation ([3]; Amount 0.5 mgg) was 0, the Urination ([3]; Amount 0.5 mgg) was 0 and the Dyspnoea ([3]; Amount 0.5 mgg) was 6. It also gave a Ptosis ([3]; Amount 0.5 mgg) of 7, a Sedation ([3]; Amount 0.5 mgg) of 7 and a Vasodilation ([3]; Amount 0.5 mgg) of 5. For the same compound, the Convulsion ([3]; Amount 1 mgg) was 1, the Salivation ([3]; Amount 1 mgg) was 0 and the Urination ([3]; Amount 1 mgg) was 0. The Dyspnoea ([3]; Amount 1 mgg) was 6, the Ptosis ([3]; Amount 1 mgg) was 7 and the Sedation ([3]; Amount 1 mgg) was 7. For the same compound, the Vasodilation ([3]; Amount 1 mgg) was 6.
For `COc1cc(CC(=O)NCCCc2ccc(C)c(C)c2)ccc1OCCO` [Example 1, N-{3-(3,4-dimethylphenyl)propyl}-4-(2-hydroxyethoxy)-3-methoxyphenylacetamide], the Convulsion ([3]; Amount 1 mgg) was 0, the Salivation ([3]; Amount 1 mgg) was 0 and the Urination ([3]; Amount 1 mgg) was 0. For the same compound, the Dyspnoea ([3]; Amount 1 mgg) was 4, the Ptosis ([3]; Amount 1 mgg) was 4 and the Sedation ([3]; Amount 1 mgg) was 4. For the same compound, the Vasodilation ([3]; Amount 1 mgg) was 4, the Convulsion ([3]; Amount 2 mgg) was 0 and the Salivation ([3]; Amount 2 mgg) was 0. For the same compound, the Urination ([3]; Amount 2 mgg) was 0, the Dyspnoea ([3]; Amount 2 mgg) was 4 and the Ptosis ([3]; Amount 2 mgg) was 4. The Sedation ([3]; Amount 2 mgg) was 4, the Vasodilation ([3]; Amount 2 mgg) was 4 and the Convulsion ([3]; Amount 4 mgg) was 0. It also gave a Salivation ([3]; Amount 4 mgg) of 0, a Urination ([3]; Amount 4 mgg) of 0 and a Dyspnoea ([3]; Amount 4 mgg) of 5. It also gave a Ptosis ([3]; Amount 4 mgg) of 5, a Sedation ([3]; Amount 4 mgg) of 6 and a Vasodilation ([3]; Amount 4 mgg) of 5. The ED50 [2, 4] was 2.01 mg/kg.
Work on `COc1cc(CC(=O)NCCCc2ccc(C)c(C)c2)ccc1OCCNCCO` [Example 2, N-{3-(3,4-dimethylphenyl)propyl}-4-[2-{N-(2-hydroxyethyl)}aminoethoxy]-3-methoxy phenylacetamide] yielded an ED50 [1, 5] of 0.83 mg/kg, a Convulsion ([3]; Amount 0.25 mgg) of 0 and a Salivation ([3]; Amount 0.25 mgg) of 0. For the same compound, the Urination ([3]; Amount 0.25 mgg) was 0, the Dyspnoea ([3]; Amount 0.25 mgg) was 4 and the Ptosis ([3]; Amount 0.25 mgg) was 4. The Sedation ([3]; Amount 0.25 mgg) was 4, the Vasodilation ([3]; Amount 0.25 mgg) was 4 and the Convulsion ([3]; Amount 0.5 mgg) was 0. For the same compound, the Salivation ([3]; Amount 0.5 mgg) was 0, the Urination ([3]; Amount 0.5 mgg) was 0 and the Dyspnoea ([3]; Amount 0.5 mgg) was 4. For the same compound, the Ptosis ([3]; Amount 0.5 mgg) was 5, the Sedation ([3]; Amount 0.5 mgg) was 5 and the Vasodilation ([3]; Amount 0.5 mgg) was 4. It also gave a Convulsion ([3]; Amount 1 mgg) of 0, a Salivation ([3]; Amount 1 mgg) of 0 and a Urination ([3]; Amount 1 mgg) of 0. The Dyspnoea ([3]; Amount 1 mgg) was 5, the Ptosis ([3]; Amount 1 mgg) was 6 and the Sedation ([3]; Amount 1 mgg) was 6. The Vasodilation ([3]; Amount 1 mgg) was 5 and the ED50 [2, 4] was 0.3 mg/kg.
In the case of `COc1cc(CC(=O)NCCCc2ccc(C)c(C)c2)ccc1OCCN(CCO)CCO` [Example 3, N-{3-(3,4-dimethylphenyl)propyl}-4-[2-{N,N-di(2-hydroxyethyl)}aminoethoxy]-3-methoxyphenylacetamide], the Convulsion ([3]; Amount 1.25 mgg) is reported as 0, the Salivation ([3]; Amount 1.25 mgg) is reported as 0 and the Urination ([3]; Amount 1.25 mgg) is reported as 0. For the same compound, the Dyspnoea ([3]; Amount 1.25 mgg) was 4, the Ptosis ([3]; Amount 1.25 mgg) was 4 and the Sedation ([3]; Amount 1.25 mgg) was 4. For the same compound, the Vasodilation ([3]; Amount 1.25 mgg) was 4, the Convulsion ([3]; Amount 2.5 mgg) was 0 and the Salivation ([3]; Amount 2.5 mgg) was 0. For the same compound, the Urination ([3]; Amount 2.5 mgg) was 0, the Dyspnoea ([3]; Amount 2.5 mgg) was 4 and the Ptosis ([3]; Amount 2.5 mgg) was 5. The Sedation ([3]; Amount 2.5 mgg) was 5, the Vasodilation ([3]; Amount 2.5 mgg) was 4 and the Convulsion ([3]; Amount 5 mgg) was 0. The Salivation ([3]; Amount 5 mgg) was 0, the Urination ([3]; Amount 5 mgg) was 0 and the Dyspnoea ([3]; Amount 5 mgg) was 6. It also gave a Ptosis ([3]; Amount 5 mgg) of 7, a Sedation ([3]; Amount 5 mgg) of 6 and a Vasodilation ([3]; Amount 5 mgg) of 5. For the same compound, the ED50 [2, 4] was 1.41 mg/kg.
`COc1cc(CC(=O)NCCCc2ccc(C)c(C)c2)ccc1OCCNCCN` [Example 4, N-{3-(3,4-dimethylphenyl)propyl}-4-[2-{N-(2-aminoethyl)}aminoethoxy]-3-methoxyphenylacetamide] gave an ED50 [2, 4] of 1.78 mg/kg.
Work on `COc1cc(CC(=O)NCCCc2ccc(C)c(C)c2)ccc1OCCN1CCNCC1` [Example 5, N-{3-(3,4-dimethylphenyl)propyl}-4-(2-piperazinylethoxy)-3-methoxyphenylacetamide] yielded a Convulsion ([3]; Amount 1 mgg) of 0, a Salivation ([3]; Amount 1 mgg) of 0 and a Urination ([3]; Amount 1 mgg) of 0. It also gave a Dyspnoea ([3]; Amount 1 mgg) of 4, a Ptosis ([3]; Amount 1 mgg) of 4 and a Sedation ([3]; Amount 1 mgg) of 4. It also gave a Vasodilation ([3]; Amount 1 mgg) of 4, a Convulsion ([3]; Amount 2 mgg) of 0 and a Salivation ([3]; Amount 2 mgg) of 0. The Urination ([3]; Amount 2 mgg) was 0, the Dyspnoea ([3]; Amount 2 mgg) was 4 and the Ptosis ([3]; Amount 2 mgg) was 4. It also gave a Sedation ([3]; Amount 2 mgg) of 4, a Vasodilation ([3]; Amount 2 mgg) of 4 and a Convulsion ([3]; Amount 4 mgg) of 0. The Salivation ([3]; Amount 4 mgg) was 0, the Urination ([3]; Amount 4 mgg) was 0 and the Dyspnoea ([3]; Amount 4 mgg) was 4. The Ptosis ([3]; Amount 4 mgg) was 6, the Sedation ([3]; Amount 4 mgg) was 6 and the Vasodilation ([3]; Amount 4 mgg) was 4. For the same compound, the ED50 [2, 4] was > 20 mg/kg.
For `COc1cc(CC(=O)NCCCc2ccc(C)c(C)c2)ccc1OCCNC=O` [Example 6], the ED50 [2, 4] was 0.26 mg/kg.
Work on `COc1cc(CC(=O)NCCCc2ccc(C)c(C)c2)ccc1OCCNC(=O)OCc1ccccc1` [Example 7, N-{3-(3,4-dimethylphenyl)propyl}-4-{2-(N-benzyloxycarbonyl)aminoethoxy}-3-methoxyphenylacetamide] yielded an ED50 [2, 4] of 1.51 mg/kg.
Compound `CNCCOc1ccc(CC(=O)NCCCc2ccc(C)c(C)c2)cc1OC` [Example 8, N-{3-(3,4-dimethylphenyl)propyl}-4-(2-methylaminoethoxy)-3-methoxyphenylacetamide] has an ED50 [1, 5] of 0.68 mg/kg.
In the case of `COc1cc(CC(=O)NCCCc2ccc(C)c(C)c2)ccc1OCCN1CCCC1` [Example 9, N-{3-(3,4-dimethylphenyl)propyl}-4-{2-(1-pyrrolidinyl)ethoxy}-3-methoxyphenylacetamide], the ED50 [2, 4] is reported as > 5 mg/kg.
With `CCOC(=O)NCCOc1ccc(CC(=O)NCCCc2ccc(C)c(C)c2)cc1OC` [Example 10, N-{3-(3,4-dimethylphenyl)propyl}-4-{2-(N-ethyloxycarbonyl)aminoethoxy}-3-methoxyphenylacetamide] the ED50 acetic acid [2, 4] was > 10 mg/kg of a body weight.
`COc1cc(CC(=O)NCCCc2ccc(C)c(C)c2)ccc1OCCNC(=O)c1ccccc1OC(C)=O` [Example 11, N-{3-(3,4-dimethylphenyl)propyl}-4-[2-{N-(2-acetoxybenzoyl)}aminoethoxy]-3-methoxyphenylacetamide] gave an ED50 [2, 4] of 4.15 mg/kg.
In the case of `CC(C)Cc1ccc(C(C)C(=O)O)cc1` (stereo not drawn) [Ibuprofen], the ED50 [1, 5] is reported as 11 mg/kg.
For `CCCCCCCC/C=C\CCCCCCCC(=O)NCc1ccc(O)c(OC)c1` [NE-19550, Nvanillyloleamide, reference compound], the ED50 [2] was 15.7 mg/kg.
`CCCCCCCC/C=C\CCCCCCCC(=O)NCc1ccc(OCCN)c(OC)c1` [NE-21610, N{4(2-aminoethoxy)-3-methoxybenzyl)-oleamide, reference compound] was tested, and the ED50 [1, 5] was 38.3 mg/kg and the ED50 [2, 4] was > 300 mg/kg.
Work on `COc1ccc2cc([C@H](C)C(=O)O)ccc2c1` [Naproxen] yielded an ED50 [1, 5] of 17.1 mg/kg.
With `CCCCC1C(=O)N(c2ccccc2)N(c2ccccc2)C1=O` [Phenylbutazone] the ED50 [1, 5] was 79.8 mg/kg.
